In patent US20260285853A1, “COMPOUNDS AND METHODS FOR MODULATING SPLICING” (REMIX THERAPEUTICS INC., priority 2023, published 2026):
Where two headings read alike, the source gives them in different places.

How the values were obtained:
Type in all cases: cell-based
HTT mRNA [1] = assay: Splicing RT-qPCR assay (THP), Table 2A
MYB mRNA [2] = assay: Splicing RT-qPCR assay (THP), Table 2A
HTT mRNA [3] = assay: Gene panel canonical junction qPCR assay, decrease in CJ mRNA, Table 3
In short: (§1)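 Cells: A673 or K562; 24 h compound exposure, 37 °C, 5% CO2; 11-pt 3-fold series from 10 uM final; DMSO ≤0.25%. Lysate → cDNA → qPCR with junction-spanning primers/probe for CJ transcript. ΔCt vs housekeeper, ΔΔCt vs DMSO, 2^(−ΔΔCt), % response, 4PL → IC50.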

MYB mRNA [4] = assay: as above
In short: as §1

[5] = tested on: SH-SY5Y (human neuroblastoma) cells; assay: Cell viability, Cell Titer Glo 2.0 assay; details: read-out: Viability SHSY5Y.3 GI50
In short: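 CellTiter-Glo 2.0 luminescence read-out after 72 h compound exposure (37 °C, 5% CO2); medium-only wells as blank. DMSO 0.1% final.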

[6] = Table 2A, THP, HTT alternative junction (AJ) mRNA, read-out: HTT AJ (AC50, increase in alternative junction mRNA)
[7] = Table 2A, THP, HTT canonical junction (CJ) mRNA, read-out: HTT CJ (IC50, decrease in canonical junction mRNA)
[8] = Table 2A, THP, MYB alternative junction (AJ) mRNA, read-out: MYB AJ (AC50, increase in alternative junction mRNA)
[9] = Table 2A, THP, MYB canonical junction (CJ) mRNA, read-out: MYB CJ (IC50, decrease in canonical junction mRNA)
[10] = decrease in CJ mRNA levels, canonical junction qPCR, gene panel
[11] = Table 2A (THP), AJ mRNA increase, read-out: HTT AJ (increase in alternative junction mRNA, AC50)
[12] = Table 2A (THP), CJ mRNA decrease, read-out: HTT CJ (decrease in canonical junction mRNA, IC50)
[13] = Table 2A (THP), AJ mRNA increase, read-out: MYB AJ (increase in alternative junction mRNA, AC50)
[14] = Table 2A (THP), CJ mRNA decrease, read-out: MYB CJ (decrease in canonical junction mRNA, IC50)
[15] = decrease in canonical junction (CJ) mRNA, gene panel qPCR, Table 3

Row | IC50 (HTT mRNA [1]; [7]) | IC50 (MYB mRNA [2]; [9]) | IC50 (HTT mRNA [3]; [10]) | IC50 (MYB mRNA [4]; [10]) | GI50 [5] | IC50 (HTT mRNA [1]; [12]) | IC50 (MYB mRNA [2]; [14]) | IC50 (HTT mRNA [3]; [15]) | IC50 (MYB mRNA [4]; [15]) | SMILES | AC50 (HTT mRNA [1]; [6]) | AC50 (MYB mRNA [2]; [8]) | AC50 (HTT mRNA [1]; [11]) | AC50 (MYB mRNA [2]; [13])
1 | < 0.1 µM | < 0.1 µM | < 0.1 µM | < 0.1 µM | < 0.1 µM |  |  |  |  | COc1nc2c(C(=O)Nc3cc(F)c4nn(C)cc4c3)ccc(N3CCN[C@@H](CO)C3)c2s1 [Compound 743, (R)—N-(7-fluoro-2-methyl-2H-indazol-5-yl)-7-(3-(hydroxymethyl)piperazin-1-yl)-2-methoxybenzo[d]thiazole-4-carboxamide 2,2,2-trifluoroacetate] | < 0.1 µM | < 0.1 µM |  | 
2 |  |  |  |  | > 10 µM | > 10 µM | > 10 µM | > 10 µM | > 10 µM | CNC1CCN(c2ccc(NC(=O)c3cc4cn(C)nc4cc3OC)c3nn(C)cc23)CC1 [Compound 521, 6-methoxy-2-methyl-N-[2-methyl-4-[4-(methylamino)-1-piperidyl]indazol-7-yl]-indazole-5-carboxamide] |  |  | > 10 µM | > 10 µM
3 | > 10 µM | 1 to 10 µM | > 10 µM | 1 to 10 µM | > 10 µM |  |  |  |  | COc1nc2c(N3CCC(NC4CC4)CC3)ccc(C(=O)Nc3cn4cc(C)nc(C)c4n3)c2o1 [Compound 680, 4-(4-(cyclopropylamino)-piperidin-1-yl)-N-(6,8-dimethylimidazo-[1,2-a]-pyrazin-2-yl)-2-methoxy-benzo[d]-oxazole-7-carboxamide] | > 10 µM | 1 to 10 µM |  | 
4 | 1 to 10 µM | 1 to 10 µM | 1 to 10 µM | 1 to 10 µM | 1 to 10 µM |  |  |  |  | COc1nc2c(C(=O)Nc3ccc4c(c3)OCCO4)ccc(N3C[C@H](C)N[C@@H](C)C3)c2s1 [Compound 716, N-(2,3-dihydro-1,4-benzodioxin-6-yl)-7-[(3S,5S)-3,5-dimethylpiperazin-1-yl]-2-methoxy-1,3-benzothiazole-4-carboxamide] | > 10 µM | 1 to 10 µM |  | 
5 |  |  |  |  | < 0.1 µM | 0.1 to 1 µM | < 0.1 µM | 0.1 to 1 µM | < 0.1 µM | COc1c(NC(=O)c2c(F)cc(N3CCC(NC45CC(C4)C5)CC3)c3cn(C)nc23)cn2cc(C)nc2c1F [Compound 389, 4-[4-(1-bicyclo[1.1.1]pentanylamino)-1-piperidyl]-6-fluoro-N-(8-fluoro-7-methoxy-2-methylimidazo-[1,2-a]pyridin-6-yl)-2-methyl-indazole-7-carboxamide] |  |  | 0.1 to 1 µM | < 0.1 µM
6 |  |  |  |  | 1 to 10 µM | 1 to 10 µM | 1 to 10 µM | 1 to 10 µM | 1 to 10 µM | COc1cc2nn(C)cc2cc1C#Cc1c(F)cc(N2CCC(NC3CC3)CC2)c2cn(C)nc12 [Compound 446, N-cyclo-propyl-1-[6-fluoro-7-[2-(6-methoxy-2-methyl-indazol-5-yl)-ethynyl]-2-methyl-indazol-4-yl]-piperidin-4-amine] |  |  | > 10 µM | > 10 µM
7 | > 10 µM | 1 to 10 µM | > 10 µM | 1 to 10 µM | 1 to 10 µM |  |  |  |  | Cn1cc2cc(NC(=O)c3ccc(N4CCC(NC5CC5)CC4)c4cn(C)nc34)cc(CO)c2n1 [Compound 793] | > 10 µM | 1 to 10 µM |  | 
8 | > 10 µM | > 10 µM | > 10 µM | > 10 µM | 1 to 10 µM |  |  |  |  | COc1nc2c(C(=O)Nc3ccc4c(c3)CCCO4)ccc(N3C[C@H](C)N[C@@H](C)C3)c2s1 [Compound 760] | > 10 µM | > 10 µM |  | 
9 |  |  |  |  | 1 to 10 µM | 0.1 to 1 µM | 0.1 to 1 µM | 0.1 to 1 µM | 0.1 to 1 µM | COc1cc2nn(C)cc2cc1NC(=O)c1ccc(OC2CCNC2)c2cn(C)nc12 (centres unmarked) [Compound 567] |  |  | 1 to 10 µM | 0.1 to 1 µM
10 |  |  |  |  | 1 to 10 µM | > 10 µM | 1 to 10 µM | > 10 µM | 1 to 10 µM | Cc1cn2cc(NC(=O)c3ccc(N4CCC5NCCC5C4)c4cn(C)nc34)nc2c(C)n1 (centres unmarked) [Compound 531] |  |  | > 10 µM | 1 to 10 µM
11 |  |  |  |  | 1 to 10 µM | > 10 µM | > 10 µM | > 10 µM | > 10 µM | Cc1cn2cc(NC(=O)c3ccc(N4CCC(NC5CC5)CC4)c4cn(C)nc34)c(OC(C)C)c2c(C)n1 [Compound 569, 4-[4-(cyclopropylamino)-1-piperidyl]-N-(8-isopropoxy-1,3-dimethyl-pyrrolo[1,2-a]pyrazin-7-yl)-2-methyl-indazole-7-carboxamide] |  |  | > 10 µM | > 10 µM
12 | 0.1 to 1 µM | < 0.1 µM | 0.1 to 1 µM | < 0.1 µM | < 0.1 µM |  |  |  |  | COc1nc2c(C(=O)Nc3ccc4nn(C)cc4c3)ccc(N3C[C@H](C)N[C@@H](C)C3)c2s1 [Compound 800, 7-[(3S,5S)-3,5-dimethylpiperazin-1-yl]-2-methoxy-N-(2-methylindazol-5-yl)-1,3-benzothiazole-4-carboxamide] | 0.1 to 1 µM | < 0.1 µM |  | 
13 | 0.1 to 1 µM | < 0.1 µM | 0.1 to 1 µM | < 0.1 µM | 0.1 to 1 µM |  |  |  |  | COCc1cc2c(N3CCC(NC4CC4)CC3)ccc(C(=O)Nc3cc(F)c4nc(C)cn4c3)n2n1 [Compound 620, 4-[4-(cyclopropylamino)-1-piperidyl]-N-(8-fluoro-2-methyl-imidazo[1,2-a]pyridin-6-yl)-2-(methoxymethyl)-pyrazolo[1,5-a]pyridine-7-carboxamide] | 0.1 to 1 µM | 0.1 to 1 µM |  | 
14 | > 10 µM | 1 to 10 µM | > 10 µM | 1 to 10 µM | > 10 µM |  |  |  |  | Cc1cn2cc(NC(=O)c3ccc(N4CCC(N)CC4)c4cn(C)nc34)nc2c(CNS(C)(=O)=O)n1 [Compound 865, 4-(4-amino-1-piperidyl)-N-[8-(methanesulfonamidomethyl)-6-methyl-imidazo[1,2-a]pyrazin-2-yl]-2-methyl-indazole-7-carboxamide] | > 10 µM | 1 to 10 µM |  | 
15 | > 10 µM | > 10 µM | > 10 µM | > 10 µM | > 10 µM |  |  |  |  | C[C@H]1CN(c2ccc(C(=O)Nc3cc(F)c4nn(C)cc4c3)c3sc(OCC4CCNC4)nc23)C[C@H](C)N1 (stereo partly drawn) [Compound 797, 4-((3S,5S)-3,5-dimethylpiperazin-1-yl)-N-(7-fluoro-2-methyl-2H-indazol-5-yl)-2-(pyrrolidin-3-ylmethoxy)benzo[d]thiazole-7-carboxamide bis(2,2,2-trifluoroacetate)] | > 10 µM | > 10 µM |  | 
16 |  |  |  |  | > 10 µM | > 10 µM | > 10 µM | > 10 µM | > 10 µM | CCNCC1CN(c2ccc(C(=O)Nc3cn4cc(C)nc(C)c4n3)c3nn(C)cc23)C1 [Compound 494, N-(6,8-dimethylimidazo[1,2-a]-pyrazin-2-yl)-4-[3-(ethylaminomethyl)azetidin-1-yl]-2-methyl-indazole-7-carboxamide] |  |  | > 10 µM | > 10 µM
17 |  |  |  |  | > 10 µM | > 10 µM | 0.1 to 1 µM | > 10 µM | 0.1 to 1 µM | Cc1cn2cc(NC(=O)c3c(F)cc(N4CCC(NC5CC5)CC4)c4cn(C)nc34)cc(Oc3ccnnc3)c2n1 [Compound 386, 4-[4-(cyclopropylamino)-1-piperidyl]-6-fluoro-2-methyl-N-(2-methyl-8-pyridazin-4-yloxy-imidazo-[1,2-a]-pyridin-6-yl)indazole-7-carboxamide] |  |  | 1 to 10 µM | 0.1 to 1 µM
18 | 0.1 to 1 µM | < 0.1 µM | 0.1 to 1 µM | < 0.1 µM | 0.1 to 1 µM |  |  |  |  | CCNC1CCN(c2ccc(C(=O)Nc3cc4cn(C)nc4cc3OC)c3nc(C)cn23)CC1 [Compound 628, 5-[4-(ethylamino)-1-piperidyl]-N-(6-methoxy-2-methyl-indazol-5-yl)-2-methyl-imidazo[1,2-a]pyridine-8-carboxamide] | 0.1 to 1 µM | < 0.1 µM |  | 
19 |  |  |  |  | 1 to 10 µM | > 10 µM | 1 to 10 µM | > 10 µM | 1 to 10 µM | CCNC1CCN(c2ccc(C(=O)Nc3cc(Oc4ccccc4C)c4nc(C)cn4c3)c3nn(C)cc23)CC1 [Compound 316, 4-[4-(ethylamino)-1-piperidyl]-2-methyl-N-[2-methyl-8-(2-methylphenoxy)imidazo[1,2-a]pyridin-6-yl]indazole-7-carboxamide] |  |  | > 10 µM | > 10 µM
20 |  |  |  |  | 1 to 10 µM | > 10 µM | 0.1 to 1 µM | > 10 µM | 0.1 to 1 µM | Cc1cn2cc(NC(=O)c3ccc(N4CCNC(C)C4)c4cn(C)nc34)nc2c(C)n1 (centres unmarked) [Compound 557] |  |  | > 10 µM | 0.1 to 1 µM
